Data: US20220288052A1, “COMPOUND FOR COMBINATION TREATMENT” (priority 2019, published 2022)

Assays:
[1] = system: mice erectile tissue; assay: Penile flow by laser doppler in mice; format: in vivo, mouse
Description: FIG. 33: Flow laser doppler raw data from mice erectile function (top), and average flow changes (EF) in mice erectile tissue (bottom). The increase in penile flow induced by compound (I) (1 mg/kg) was highly significant and increased 4.99 times, n=2.
A laser doppler flow probe was positioned in situ in mice erectile tissue for measurement of penile basal flow in the absence and the presence of compound (I).

[2] = system: C57 mice; assay: Mouse tail suspension test (mTST); format: in vivo; settings: i.p. 30 min
Description: C57 males, 25-28 g, Taconic, 16/8-06. Mice acclimatized to ground floor 5 days before testing. Mice saline injected once a day twice before test day. 22° C., N=7-8.

[3] = Metabolic stability in liver microsomes, human; format: in vitro ADME
Description: (§1) The metabolic stability of compound (I) was tested in liver microsomes from all in house available species at 1 and 5 μM. One metabolite of 16 mass units higher than parent, was found in all incubations, except with human liver microsomes.

[4] = molecular target: Nicotinic α3β4 (Homo sapiens, UniProt P30926+P32297); assay: Selectivity screen, Nicotinic α3β4; format: binding
Sequence of Nicotinic α3β4 (P32297 32-505): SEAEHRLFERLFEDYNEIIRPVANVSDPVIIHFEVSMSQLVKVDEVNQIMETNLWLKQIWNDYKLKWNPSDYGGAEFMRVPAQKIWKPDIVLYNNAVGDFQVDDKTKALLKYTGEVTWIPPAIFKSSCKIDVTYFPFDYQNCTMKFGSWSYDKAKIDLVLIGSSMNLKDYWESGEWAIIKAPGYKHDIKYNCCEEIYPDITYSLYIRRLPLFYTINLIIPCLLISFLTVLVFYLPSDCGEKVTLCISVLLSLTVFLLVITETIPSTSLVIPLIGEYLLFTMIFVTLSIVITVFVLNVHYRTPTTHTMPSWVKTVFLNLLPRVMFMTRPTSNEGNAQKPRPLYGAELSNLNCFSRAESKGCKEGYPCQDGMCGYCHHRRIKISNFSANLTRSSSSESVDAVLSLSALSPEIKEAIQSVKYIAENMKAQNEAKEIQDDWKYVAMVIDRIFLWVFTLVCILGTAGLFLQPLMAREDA
Sequence of Nicotinic α3β4 (P30926 22-498): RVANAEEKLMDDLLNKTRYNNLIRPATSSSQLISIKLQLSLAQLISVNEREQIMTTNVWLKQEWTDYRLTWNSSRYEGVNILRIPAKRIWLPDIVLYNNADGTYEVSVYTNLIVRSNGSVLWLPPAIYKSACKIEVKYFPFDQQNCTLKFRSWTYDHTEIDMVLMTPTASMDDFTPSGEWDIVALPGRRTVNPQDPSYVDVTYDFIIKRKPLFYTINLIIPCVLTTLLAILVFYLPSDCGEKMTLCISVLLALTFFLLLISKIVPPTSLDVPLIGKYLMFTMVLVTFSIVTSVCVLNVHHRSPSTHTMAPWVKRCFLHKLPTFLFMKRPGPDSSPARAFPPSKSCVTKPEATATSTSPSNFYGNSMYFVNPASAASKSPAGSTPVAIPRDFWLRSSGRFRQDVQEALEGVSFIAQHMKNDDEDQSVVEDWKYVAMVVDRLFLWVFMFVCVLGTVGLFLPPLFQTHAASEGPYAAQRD

[5] = molecular target: 5-HT transporter (Homo sapiens, UniProt P31645); assay: ^3H-Citalopram binding, human
Sequence of 5-HT transporter (Homo sapiens, UniProt P31645) (P31645 whole entry): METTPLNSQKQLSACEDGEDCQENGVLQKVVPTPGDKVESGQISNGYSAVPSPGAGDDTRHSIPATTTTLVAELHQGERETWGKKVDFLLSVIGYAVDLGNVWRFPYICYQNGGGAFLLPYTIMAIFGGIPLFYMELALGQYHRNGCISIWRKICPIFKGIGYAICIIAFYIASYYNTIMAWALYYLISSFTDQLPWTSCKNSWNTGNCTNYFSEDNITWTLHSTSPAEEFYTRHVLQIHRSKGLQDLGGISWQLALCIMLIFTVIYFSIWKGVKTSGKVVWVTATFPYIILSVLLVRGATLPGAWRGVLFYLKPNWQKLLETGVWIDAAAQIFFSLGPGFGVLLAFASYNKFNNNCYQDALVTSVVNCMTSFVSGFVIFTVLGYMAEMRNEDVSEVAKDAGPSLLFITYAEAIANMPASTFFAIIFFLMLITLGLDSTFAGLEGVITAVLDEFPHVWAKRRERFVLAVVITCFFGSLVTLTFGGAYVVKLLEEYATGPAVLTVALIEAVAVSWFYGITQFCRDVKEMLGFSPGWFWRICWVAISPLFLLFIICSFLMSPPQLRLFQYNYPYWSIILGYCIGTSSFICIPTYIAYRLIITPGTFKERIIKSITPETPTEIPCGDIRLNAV
Source text: (§2) Compound (I) has been characterized as a monoamine reuptake inhibitor, based on the profile in a series of functional assays (Table 2).

[6] = Bioavailability study in rat
[7] = molecular target: T1, NA transporter (Mus musculus, UniProt O55192); assay: Ex vivo NA uptake in mice
T1 construct: from tissue; host or cells: tissue of dosed animals (ex vivo)
T1 sequence (O55192 whole entry): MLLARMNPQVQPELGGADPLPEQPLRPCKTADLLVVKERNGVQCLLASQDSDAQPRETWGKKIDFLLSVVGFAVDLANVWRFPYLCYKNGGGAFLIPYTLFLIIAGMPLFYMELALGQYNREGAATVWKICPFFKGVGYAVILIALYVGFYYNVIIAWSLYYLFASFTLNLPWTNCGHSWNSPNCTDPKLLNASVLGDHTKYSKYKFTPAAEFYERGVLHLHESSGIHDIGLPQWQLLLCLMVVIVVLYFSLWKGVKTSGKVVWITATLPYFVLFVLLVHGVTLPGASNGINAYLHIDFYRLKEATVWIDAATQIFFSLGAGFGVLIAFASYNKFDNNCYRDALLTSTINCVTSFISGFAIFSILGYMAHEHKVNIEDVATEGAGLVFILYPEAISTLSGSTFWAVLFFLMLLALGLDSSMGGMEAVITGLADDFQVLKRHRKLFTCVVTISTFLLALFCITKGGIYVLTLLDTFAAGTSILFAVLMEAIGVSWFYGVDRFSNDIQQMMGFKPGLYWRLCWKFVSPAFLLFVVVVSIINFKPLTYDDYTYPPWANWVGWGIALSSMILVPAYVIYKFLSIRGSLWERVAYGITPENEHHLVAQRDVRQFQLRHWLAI
Description: (§3) The in vivo receptor occupancy (RO %) of compound (I) was calculated at the MED values (DOSE) in mFST and in the mouse motility test using the formula RO % (estimated)=DOSE 100/(ED50+DOSE). The calculations were based on ED50 values in ex vivo uptake of 5-HT and NA and WIN in vivo binding.

[8] = 14-day repeat-dose study in NMRI mice; format: in vivo, mouse
Description: In a 14-day repeat-dose study 4 groups of 8 male and 8 female NMRI mice were treated daily with compound (I) at doses of 15, 30, and 60 mg/kg p.o. (Groups 2, 3 and 4), or vehicle, 5% glucose s.c. (Group 1). A satellite group 90 mg/kg p.o. (group 5) was conducted accordingly to increase the exposure and efficacy.

[9] = Metabolic stability in liver microsomes, dog; format: in vitro ADME
Description: as §1

[10] = system: NMRI mice; assay: Locomotor activity (mLA); format: in vivo, mouse
Description: FIG. 8: The effects of compound (I) on locomotor activity. Compound (I) p.o. in NMRI mice. TSE Motility.
Compound (I) was tested in a classical test often used to measure the ability of a compound to block the reuptake of 5-HT in vivo: nialamide-induced 5-HT syndrome (m5-HT). In addition, compound (I) was tested in a locomotor activity paradigm (mLA) as a measure of its ability to block the reuptake of DA and therefore induce motility. It is generally accepted that >60% DA transporter blockade is needed to induce increased motility in this test.

[11] = system: NMRI mice; assay: Mouse stress-induced hyperthermia test (mSIH); format: in vivo
Description: FIG. 14: Stress-induced hyperthermia. When mice are confronted with a stress-full event, the body temperature rises.
Compound (I) was tested in three widely used behavioural screens for predicting anxiolytic effects in the clinic: the mouse marble burying test (mMB), mouse zero maze (mZM) and mouse stress-induced hyperthermia test (mSIH).

[12] = molecular target: NA transporter (Homo sapiens, UniProt P23975); assay: ^3H-Nisoxetine binding, human
Sequence of NA transporter (Homo sapiens, UniProt P23975) (P23975 whole entry): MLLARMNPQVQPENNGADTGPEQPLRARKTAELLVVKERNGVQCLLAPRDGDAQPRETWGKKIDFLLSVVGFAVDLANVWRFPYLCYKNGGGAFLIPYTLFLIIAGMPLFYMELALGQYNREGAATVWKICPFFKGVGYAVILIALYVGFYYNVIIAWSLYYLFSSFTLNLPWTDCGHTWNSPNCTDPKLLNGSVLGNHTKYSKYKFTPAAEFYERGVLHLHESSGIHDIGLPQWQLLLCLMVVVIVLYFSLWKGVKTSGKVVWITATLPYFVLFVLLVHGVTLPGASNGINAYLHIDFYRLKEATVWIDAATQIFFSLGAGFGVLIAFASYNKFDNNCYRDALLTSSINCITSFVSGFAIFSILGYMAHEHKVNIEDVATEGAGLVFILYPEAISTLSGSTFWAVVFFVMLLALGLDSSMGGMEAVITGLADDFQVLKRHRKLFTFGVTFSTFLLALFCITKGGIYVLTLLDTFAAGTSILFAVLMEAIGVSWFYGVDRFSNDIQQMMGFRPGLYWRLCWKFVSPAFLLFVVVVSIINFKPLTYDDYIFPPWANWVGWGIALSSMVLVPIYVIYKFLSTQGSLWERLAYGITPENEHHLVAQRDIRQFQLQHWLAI
Source text: as §2

[13] = in vivo; settings: male, Wistar, rat, plasma
[14] = molecular target: T2, 5-HT transporter (Mus musculus, UniProt Q60857); assay: Ex vivo 5-HT uptake in mice
T2 construct: from tissue; host or cells: tissue of dosed animals (ex vivo)
T2 sequence (Q60857 whole entry): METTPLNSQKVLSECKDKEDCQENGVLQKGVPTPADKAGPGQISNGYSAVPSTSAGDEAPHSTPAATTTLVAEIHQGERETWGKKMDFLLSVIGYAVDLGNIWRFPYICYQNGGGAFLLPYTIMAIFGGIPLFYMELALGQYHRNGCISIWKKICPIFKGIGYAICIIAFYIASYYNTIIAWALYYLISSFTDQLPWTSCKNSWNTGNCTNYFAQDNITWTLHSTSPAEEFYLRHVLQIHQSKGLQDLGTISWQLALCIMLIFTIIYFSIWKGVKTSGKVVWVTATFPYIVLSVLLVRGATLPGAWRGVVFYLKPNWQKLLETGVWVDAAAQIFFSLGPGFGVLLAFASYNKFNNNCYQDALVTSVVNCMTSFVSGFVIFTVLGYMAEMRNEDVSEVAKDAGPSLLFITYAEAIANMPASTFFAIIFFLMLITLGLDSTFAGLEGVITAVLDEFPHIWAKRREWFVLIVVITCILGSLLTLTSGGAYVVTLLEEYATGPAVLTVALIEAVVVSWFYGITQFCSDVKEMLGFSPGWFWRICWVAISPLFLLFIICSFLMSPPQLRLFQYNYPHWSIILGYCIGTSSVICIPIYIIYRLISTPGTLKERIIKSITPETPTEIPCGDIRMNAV
Description: as §3

[15] = 5 days p.o. tolerated dose study in female rats (non-GLP); format: in vivo, rat; settings: p.o. 5 days, 30, 60, 90 mg/kg
[16] = molecular target: hERG channels (Homo sapiens, UniProt Q12809); assay: cell-based
Sequence of hERG channels (Q12809 whole entry): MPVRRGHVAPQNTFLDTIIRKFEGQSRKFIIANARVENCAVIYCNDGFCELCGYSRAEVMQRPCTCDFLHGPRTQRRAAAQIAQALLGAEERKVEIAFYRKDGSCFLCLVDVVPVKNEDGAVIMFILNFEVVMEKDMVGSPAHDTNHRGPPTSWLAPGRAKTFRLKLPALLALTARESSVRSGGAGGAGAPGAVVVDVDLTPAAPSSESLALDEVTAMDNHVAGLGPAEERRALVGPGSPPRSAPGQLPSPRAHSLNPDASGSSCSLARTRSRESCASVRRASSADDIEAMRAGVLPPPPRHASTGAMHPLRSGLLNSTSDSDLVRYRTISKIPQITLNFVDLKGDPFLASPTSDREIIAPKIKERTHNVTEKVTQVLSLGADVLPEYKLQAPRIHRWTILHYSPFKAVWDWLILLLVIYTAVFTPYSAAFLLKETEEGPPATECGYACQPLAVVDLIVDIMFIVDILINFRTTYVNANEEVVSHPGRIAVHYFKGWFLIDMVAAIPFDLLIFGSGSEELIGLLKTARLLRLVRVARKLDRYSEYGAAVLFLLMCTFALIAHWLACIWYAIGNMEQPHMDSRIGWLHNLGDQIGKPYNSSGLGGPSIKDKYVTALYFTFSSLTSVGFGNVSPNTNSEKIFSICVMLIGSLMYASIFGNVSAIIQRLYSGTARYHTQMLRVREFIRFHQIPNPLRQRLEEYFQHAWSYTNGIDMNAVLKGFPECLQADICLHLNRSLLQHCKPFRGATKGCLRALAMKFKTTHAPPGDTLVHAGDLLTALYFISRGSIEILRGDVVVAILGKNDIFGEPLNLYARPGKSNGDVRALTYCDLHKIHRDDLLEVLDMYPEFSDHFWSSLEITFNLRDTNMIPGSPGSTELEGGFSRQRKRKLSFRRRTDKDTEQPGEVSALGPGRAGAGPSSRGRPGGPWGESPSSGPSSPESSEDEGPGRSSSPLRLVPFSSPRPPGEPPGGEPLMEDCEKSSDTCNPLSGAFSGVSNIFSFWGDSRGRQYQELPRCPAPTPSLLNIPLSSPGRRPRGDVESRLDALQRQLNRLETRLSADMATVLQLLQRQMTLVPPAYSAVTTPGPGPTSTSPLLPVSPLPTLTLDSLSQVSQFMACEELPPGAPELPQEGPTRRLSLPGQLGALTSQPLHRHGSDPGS
Description: A HEK293 cell line stably expressing Kv11.3 for hERG and KCNE1 (minK) was established. The effect of compound (I) on the amount of current carried by hERG channels was assessed in whole-cell patch clamp experiments. The channels were activated by a voltage protocol designed to simulate a human cardiac action potential.

[17] = Purity and stability study (solution, photo, oxidation, solid state); format: physicochemical
Description: A purity and stability study was performed on exo-7-(8-aza-bicyclo[3.2.1]oct-3-yloxy)-chromen-2-one (compound (I)) hydrochloride anhydrate, showing that the compound is chemically and thermodynamically stable as solid and in solution, but sensitive to light when in solution.

[18] = system: Salmonella typhimurium strains TA 100 and TA 98; assay: Ames screening test; format: cell-based; settings: 1.6 to 5000 μg/plate, presence or absence of S-9 mix
Description: Compound (I) was tested for genotoxicity in the Ames screening test using Salmonella typhimurium strains TA 100 and TA 98. Compound (I) was tested at dose levels of 1.6 to 5000 μg/plate in the presence or absence of S-9 mix.

[19] = estimated at MED in mFST (NMRI mice), DOSE 1 mg/kg
[20] = estimated at MED in mMotility, DOSE 10 mg/kg
[21] = 60 mg/kg p.o. 14 days (Group 4)
[22] = 90 mg/kg p.o. 14 days (Group 5)

SMILES: O=c1ccc2ccc(O[C@@H]3C[C@H]4CC[C@@H](C3)N4)cc2o1 [Compound (I), exo-7-(8-aza-bicyclo[3.2.1]oct-3-yloxy)-chromen-2-one]
- Increase in penile flow ([1]; 1 mg/kg, n=2): 4.99 times
- Penile flow ([1]; infusion of 1 mg/kg): markedly increased
- MED [2]: <5 mg/kg
- Metabolite (mass units higher than parent) [3]: None
- Stability at 1 μM [3]: 94%
- Stability at 5 μM [3]: 93%
- Ki [4]: 5050 nM
- Separation to transporter hDAT ([4]; Nicotinic acetylcholine Ki versus hDAT Ki 155 nM): x32
- Separation to transporter hNET ([4]; Nicotinic acetylcholine Ki versus hNET Ki 594 nM): x8.5
- inhibition at 10 µM ([4]; Nicotinic α3β4, Human, 10 μM): 57%
- Ki [5]: 0.24 nM
- T½ i.v. ([6]; rat, 2.5 mg/kg i.v., 2.5 mg/kg): 36 min
- Tolerability of i.v. dose ([6]; rats, 10 mg/kg i.v.): *Rats could not tolerate 10 mg/kg i.v. because of exaggerated dopaminergic effects.
- NA RO % [7, 19]: <1.9%
- NA RO % [7, 20]: <17%
- ED50 ([7]; mouse, po): > 50 mg/kg
- Activity [8, 21]: increase in activity in both male and female
- Body weight [8, 21]: significant decrease in body weight in the female group
- Relative liver weight [8, 21]: significant decrease in relative liver weight in both sexes
- Activity [8, 22]: increase in activity in both male and female
- Body weight and relative liver weight [8, 22]: significant decrease in body weight and in relative liver weight in both sexes
- Macroscopic findings at termination ([8]; 15 up to 90 mg/kg/day p.o. 14 days): no treatment-related macroscopic findings
- Stability at 1 μM [9]: 100%
- Stability at 5 μM [9]: 90%
- MED ([10]; mLA, 1, 3, 10 mg/kg p.o. −60 min + SCH23390 0.00375 mg/kg s.c. −60 min): 10 mg/kg
- MED ([10]; mLA, p.o. 0 min): 10 mg/kg
- Body temperature in resting conditions ([11]; 0.1, 1 and 3 mg/kg per oral, NMRI mice): did not change body temperature in resting conditions
- Stress-induced temperature rise ([11]; 0.1, 1 and 3 mg/kg per oral, NMRI mice, all three doses): temperature rise was significantly prevented
- MED ([11]; mSIH, p.o., −60 min): 0.3 mg/kg
- Ki [12]: 270 nM
- Vd ([13]; intravenous, 2.5 mg/kg): 5.6 L/kg
- clearance ([13]; intravenous, 2.5 mg/kg): 137 mL/min/kg
- AUC(0-inf) ([13]; iv, 2.5 mg/kg): 306 ng·h/mL
- half-life ([13]; iv, 2.5 mg/kg): 48 min
- bioavailability ([13]; oral, 5 mg/kg): 3%
- AUC(0-inf) ([13]; po, 5 mg/kg): 17 ng·h/mL
- Cmax ([13]; po, 5 mg/kg): 8 ng/mL
- Tmax ([13]; po, 5 mg/kg): 30 min
- 5-HT RO % [14, 19]: 34%
- 5-HT RO % [14, 20]: 84%
- ED50 ([14]; mouse, po): 1.9 mg/kg
- Activity [15]: increased activity
- Body weight gain [15]: no changes in body weight gain
- Ki [16]: > 10000 nM
- Compound (I), % left after 1 d at 40° C. ([17]; Oxidation, 5% H2O2, 0.15 mM): 83%
- Compound (I), % left after 3 h at 250 W/m^2 ([17]; Photostability at pH 7.4): 11%
- % left after 26 d at 40° C. 75% rel. humidity in open container ([17]; Solid state stability): 100%
- Compound (I), % left after 1 d at 40° C. ([17]; Stability at pH 1.0, 0.15 mM): 100%
- Compound (I), % left after 1 d at 40° C. ([17]; Stability at pH 7.4, 0.15 mM): 100%
- Mutagenic activity (genotoxicity) [18]: did not show any evidence of mutagenic activity
